Read-outs that look alike come from different tables or passages of the source.
Assays:
human recombinant BACE1 = human recombinant BACE1 (Homo sapiens (Human), UniProt P56817); assay: In vitro enzymatic BACE1 FRET assay; format: biochemical; conditions: read-out: IC50 IP (μM) BACE1 enzyme
In short: (§1)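 Fluorescence from cleavage of a quenched peptide spanning the BACE site (50 nM) was read at 488 nm excitation, 590 nm emission. Purified enzyme (Ni-NTA) and compound reacted for one hour before a Tris stop shifted pH to neutral.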

human recombinant BACE2 = human recombinant BACE2 (Homo sapiens (Human), UniProt Q9Y5Z0); assay: In vitro enzymatic BACE2 FRET assay; format: biochemical; conditions: read-out: IC50 IP (μM) BACE2 enzyme
Chain of human recombinant BACE2 (Q9Y5Z0 63-518): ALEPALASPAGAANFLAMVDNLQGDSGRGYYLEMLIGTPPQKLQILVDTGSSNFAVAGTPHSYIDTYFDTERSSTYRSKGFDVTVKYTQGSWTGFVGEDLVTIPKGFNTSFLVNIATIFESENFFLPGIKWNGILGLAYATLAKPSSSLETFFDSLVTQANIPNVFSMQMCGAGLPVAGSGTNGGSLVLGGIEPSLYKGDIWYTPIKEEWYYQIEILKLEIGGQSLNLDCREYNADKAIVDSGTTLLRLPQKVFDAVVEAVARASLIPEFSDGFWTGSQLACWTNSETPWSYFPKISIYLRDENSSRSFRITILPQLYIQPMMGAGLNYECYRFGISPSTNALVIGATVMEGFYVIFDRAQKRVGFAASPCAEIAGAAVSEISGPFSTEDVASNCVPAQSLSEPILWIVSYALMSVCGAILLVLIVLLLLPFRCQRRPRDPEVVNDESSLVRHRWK
In short: as §1

[1] = test system: Aβ40 in conditioned medium of cells stably expressing Amyloid Precursor Protein (APP); assay: In vitro BACE-1 cell-based assay (Aβ40 sandwich ELISA); conditions: read-out: IC50 IP (μM) BACE1 cell
In short: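 Aβ40 in supernatants measured by time-resolved fluorescence sandwich ELISA, with pAb40 as capture and biotin-6E10 as detector antibody, each incubated at 4 °C.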

Recombinant Cat D = Recombinant Cat D (Homo sapiens (Human), UniProt P07339); assay: In vitro enzymatic Cathepsin D (Cat D) FRET assay; format: biochemical; conditions: read-out: IC50 IP (μM) CatD
Chain of Recombinant Cat D (P07339 65-412): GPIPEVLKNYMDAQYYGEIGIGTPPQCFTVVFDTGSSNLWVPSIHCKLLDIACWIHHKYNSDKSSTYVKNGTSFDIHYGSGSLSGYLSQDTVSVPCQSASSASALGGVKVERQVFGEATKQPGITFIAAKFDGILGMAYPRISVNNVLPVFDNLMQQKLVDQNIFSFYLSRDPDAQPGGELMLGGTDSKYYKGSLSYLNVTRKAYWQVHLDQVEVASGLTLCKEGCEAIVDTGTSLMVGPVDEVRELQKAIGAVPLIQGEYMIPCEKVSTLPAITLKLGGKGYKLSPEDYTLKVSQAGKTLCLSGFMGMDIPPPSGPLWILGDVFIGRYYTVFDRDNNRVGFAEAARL
In short: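 Human Cat D expressed in CHO cells was incubated for one hour in 0.05 M citrate pH 3.5, 5 mM CHAPS, 10% DMSO final, with 20 nM quenched FRET peptide substrate. Reactions were stopped with Tris buffer raising pH to neutrality. Cleavage was read as fluorescence at excitation 500 nm, emission 580 nm.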

Chain of human recombinant BACE1 (P56817 46-501): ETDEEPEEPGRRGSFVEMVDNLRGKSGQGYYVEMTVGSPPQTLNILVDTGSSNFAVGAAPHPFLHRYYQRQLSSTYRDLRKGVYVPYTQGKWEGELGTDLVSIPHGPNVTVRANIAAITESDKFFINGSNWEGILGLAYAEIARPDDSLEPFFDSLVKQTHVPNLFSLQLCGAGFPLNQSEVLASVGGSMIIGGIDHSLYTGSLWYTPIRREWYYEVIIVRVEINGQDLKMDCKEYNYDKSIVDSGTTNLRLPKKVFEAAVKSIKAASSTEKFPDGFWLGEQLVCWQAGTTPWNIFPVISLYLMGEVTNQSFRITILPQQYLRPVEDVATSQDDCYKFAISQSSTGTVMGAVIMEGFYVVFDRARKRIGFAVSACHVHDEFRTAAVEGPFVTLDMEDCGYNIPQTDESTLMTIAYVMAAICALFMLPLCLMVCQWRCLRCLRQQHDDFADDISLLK

Row | SMILES | IC50 (human recombinant BACE1) [µM] | IC50 (human recombinant BACE2) [µM] | IC50 [1] [µM] | IC50 (Recombinant Cat D) [µM] | IC50 (human recombinant BACE1; BACE1 FRET enzyme assay) [µM] | IC50 (human recombinant BACE2; BACE2 FRET enzyme assay) [µM] | IC50 ([1]; BACE1 cell-based assay) [µM] | IC50 (Recombinant Cat D; Cathepsin D FRET enzyme assay) [µM]
1 | C#CCOc1ccc(C(=O)Nc2ccc(F)c([C@@]3(CF)N=C(N)S[C@@]4(c5ccon5)C[C@@H]34)c2)nc1 [Example 793, N-(3-((1S,5S,6S)-3-amino-5-(fluoromethyl)-1-(3-isoxazolyl)-2-thia-4-azabicyclo[4.1.0]hept-3-en-5-yl)-4-fluorophenyl)-5-(2-propyn-1-yloxy)-2-pyridinecarboxamide] | 0.000293 | 0.00477 | 0.0153 | 482 | – | – | – | –
2 | C[C@]1(c2cc(NC(=O)c3ccc(Cl)cn3)ccc2F)N=C(N)S[C@@]2(CF)C[C@H]21 [Example 821, N-(3-((1S,5S,6S)-3-amino-1-(fluoromethyl)-5-methyl-2-thia-4-azabicyclo[4.1.0]hept-3-en-5-yl)-4-fluorophenyl)-5-chloro-2-pyridinecarboxamide] | 0.00298 | < 0.00203 | 0.00428 | 1170 | – | – | – | –
3 | C#CCOc1cnc(C(=O)Nc2ccc(F)c([C@@]3(C)N=C(N)S[C@@]4(C(F)F)C[C@@H]34)c2)c(C)n1 [Example 830, N-(3-((1S,5S,6S)-3-amino-1-(difluoromethyl)-5-methyl-2-thia-4-azabicyclo[4.1.0]hept-3-en-5-yl)-4-fluorophenyl)-3-methyl-5-(2-propyn-1-yloxy)-2-pyrazinecarboxamide] | 0.000566 | 0.0101 | 0.00221 | 121 | – | – | – | –
4 | NC1=N[C@](CF)(c2cc(NC(=O)c3ccc(Cl)cn3)ccc2F)[C@@H]2C[C@]2(/C=C/C(=O)N2CC(F)(F)C2)S1 [Example 772, N-(3-((1R,5S,6S)-3-amino-1-((1E)-3-(3,3-difluoro-1-azetidinyl)-3-oxo-1-propen-1-yl)-5-(fluoromethyl)-2-thia-4-azabicyclo[4.1.0]hept-3-en-5-yl)-4-fluorophenyl)-5-chloro-2-pyridinecarboxamide] | 0.000429 | < 0.00203 | 0.000972 | 82 | – | – | – | –
5 | Cc1cc(C#N)cnc1C(=O)Nc1ccc(F)c([C@@]2(CF)N=C(N)S[C@H]3C[C@H]32)c1 [Example 3, N-(3-((1S,5S,6S)-3-amino-5-(fluoromethyl)-2-thia-4-azabicyclo[4.1.0]hept-3-en-5-yl)-4-fluorophenyl)-5-cyano-3-methylpicolinamide] | – | – | – | – | 0.00838 | 0.0108 | 0.00522 | 437
6 | NC1=N[C@](CF)(c2cc(NC(=O)c3ccc(Cl)cn3)ccc2F)[C@@H]2C[C@]2(c2c[nH]nn2)S1 [Example 956, N-(3-((1S,5S,6S)-3-amino-5-(fluoromethyl)-1-(1H-1,2,3-triazol-4-yl)-2-thia-4-azabicyclo[4.1.0]hept-3-en-5-yl)-4-fluorophenyl)-5-chloro-2-pyridinecarboxamide] | 0.000927 | < 0.00203 | 0.019 | 341 | – | – | – | –
7 | NC(=O)/C=C/[C@]12C[C@H]1[C@@](CF)(c1cc(NC(=O)c3ccc(Cl)cn3)ccc1F)N=C(N)S2 [Example 759, N-(3-((1R,5S,6S)-3-amino-1-((E)-3-amino-3-oxoprop-1-en-1-yl)-5-(fluoromethyl)-2-thia-4-azabicyclo[4.1.0]hept-3-en-5-yl)-4-fluorophenyl)-5-chloropicolinamide] | 0.00101 | < 0.00203 | 0.00265 | > 400 | – | – | – | –
8 | COC[C@]12C[C@H]1[C@@](C)(c1cc(NC(=O)c3ncc(OCC(F)(F)F)cc3C)ccc1F)N=C(N)S2 [Example 681, N-(3-((1S,5S,6S)-3-amino-1-(methoxymethyl)-5-methyl-2-thia-4-azabicyclo[4.1.0]hept-3-en-5-yl)-4-fluorophenyl)-3-methyl-5-(2,2,2-trifluoroethoxy)-2-pyridinecarboxamide] | 0.0109 | 0.789 | 0.0555 | 1450 | – | – | – | –
9 | C#CCOc1cnc2c(Nc3cc(F)c(F)c([C@@]4(C)N=C(N)S[C@@]5(C(=O)N6CCCC6)C[C@H]54)c3)ncnc2c1 [Example 933, N-(3-((1S,5S,6S)-3-amino-5-methyl-1-(1-pyrrolidinylcarbonyl)-2-thia-4-azabicyclo[4.1.0]hept-3-en-5-yl)-4,5-difluorophenyl)-7-(2-propyn-1-yloxy)pyrido[3,2-d]pyrimidin-4-amine] | 0.000526 | 0.00491 | 0.000709 | 315 | – | – | – | –

Second part, the compound after the results:

Row | IC50 (human recombinant BACE1) [µM] | IC50 (human recombinant BACE2) [µM] | IC50 [1] [µM] | IC50 (Recombinant Cat D) [µM] | IC50 (human recombinant BACE1; BACE1 FRET enzyme assay) [µM] | IC50 (human recombinant BACE2; BACE2 FRET enzyme assay) [µM] | IC50 ([1]; BACE1 cell-based assay) [µM] | IC50 (Recombinant Cat D; Cathepsin D FRET enzyme assay) [µM] | SMILES
10 | 0.00361 | 0.101 | 0.0755 | 340 | – | – | – | – | Cc1nc(OCC(F)(F)F)cnc1C(=O)Nc1cc(F)c(F)c([C@@]2(C)N=C(N)S[C@@]3(CF)C[C@H]32)c1 [Example 614, N-(3-((1S,5S,6S)-3-amino-1-(fluoromethyl)-5-methyl-2-thia-4-azabicyclo[4.1.0]hept-3-en-5-yl)-4,5-difluorophenyl)-3-methyl-5-(2,2,2-trifluoroethoxy)-2-pyrazinecarboxamide]
11 | 0.00207 | 0.0102 | 0.00624 | 872 | – | – | – | – | C#C[C@H](C)Oc1cnc2c(Nc3cc(F)c(F)c([C@@]4(C)N=C(N)S[C@@]5(C(=O)N6CCCC6)C[C@H]54)c3)nccc2n1 [Example 937, N-(3-((1S,5S,6S)-3-amino-5-methyl-1-(1-pyrrolidinylcarbonyl)-2-thia-4-azabicyclo[4.1.0]hept-3-en-5-yl)-4,5-difluorophenyl)-2-(((1S)-1-methyl-2-propyn-1-yl)oxy)pyrido[3,4-b]pyrazin-5-amine]
12 | 0.00144 | 0.0383 | 0.00134 | 1240 | – | – | – | – | [2H]C([2H])([2H])OC[C@]12C[C@H]1[C@@](C)(c1cc(Nc3nccc4nc(OC([2H])([2H])C#C)cnc34)cnc1F)N=C(N)S2 [Example 854, N-(5-((1S,5S,6S)-3-amino-5-methyl-1-(((~2~H_3_)methyloxy)methyl)-2-thia-4-azabicyclo[4.1.0]hept-3-en-5-yl)-6-fluoro-3-pyridinyl)-2-((1,1-~2~H_2_)-2-propyn-1-yloxy)pyrido[3,4-b]pyrazin-5-amine]
13 | 0.00223 | 0.143 | 0.00823 | 592 | – | – | – | – | COC[C@]12C[C@H]1[C@@](C)(c1cc(Nc3nccc4nc(OCc5noc(C)n5)cnc34)cc(F)c1F)N=C(N)S2 [Example 885, N-(3-((1S,5S,6S)-3-amino-1-(methoxymethyl)-5-methyl-2-thia-4-azabicyclo[4.1.0]hept-3-en-5-yl)-4,5-difluorophenyl)-2-((5-methyl-1,2,4-oxadiazol-3-yl)methoxy)pyrido[3,4-b]pyrazin-5-amine]
14 | 0.011 | 0.069 | 0.02 | 1320 | – | – | – | – | CC#CCCOc1cnc(C(=O)Nc2cc(F)c(F)c([C@@]3(C)N=C(N)S[C@@]4(COC)C[C@H]43)c2)cn1 [Example 1059, N-(3-((1S,5S,6S)-3-amino-1-(methoxymethyl)-5-methyl-2-thia-4-azabicyclo[4.1.0]hept-3-en-5-yl)-4,5-difluorophenyl)-5-(3-pentyn-1-yloxy)-2-pyrazinecarboxamide]
15 | 0.000244 | 0.0183 | 0.00122 | 73.6 | – | – | – | – | C#CCOc1cnc2c(Nc3ccc(F)c([C@@]4(C)N=C(N)S[C@@]5(C(F)F)C[C@@H]45)c3)nccc2n1 [Example 816, N-(3-((1S,5S,6S)-3-amino-1-(difluoromethyl)-5-methyl-2-thia-4-azabicyclo[4.1.0]hept-3-en-5-yl)-4-fluorophenyl)-2-(2-propyn-1-yloxy)pyrido[3,4-b]pyrazin-5-amine]

— patent US20160046618A1, “Cyclopropyl Fused Thiazin-2-Amine Compounds as Beta-Secretase Inhibitors and Methods of Use” (AMGEN INC., priority 2014, published 2016)
